Results taken from ChEMBL document CHEMBL1201862, “PubChem BioAssay data set” (2004).
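A five-concentration, 48-hour dose response in 96-well plates underlies each endpoint, interpolated linearly between surrounding concentrations. Here, GI50 denotes the concentration required for 50% inhibition of growth.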 Activity calls are given as the source filed them. Rule as the data show it: active = GI50 up to about 1.1 µM and inactive = higher.

Assays:
Test in all cases: NCI anticancer screen, dose series, 48 h
MDA-MB-435 = system: MDA-MB-435
SN12C = system: SN12C
A549 = system: A549
ACHN = system: ACHN
SW-620 = system: SW-620
PC-3 = system: PC-3
UACC-257 = system: UACC-257
TK-10 = system: TK-10
SK-MEL-28 = system: SK-MEL-28
MCF7 = system: MCF7
MDA-MB-231 = system: MDA-MB-231
K562 = system: K562
SK-OV-3 = system: SK-OV-3
SR = system: SR
NCI-H522 = system: NCI-H522
M14 = system: M14
KM12 = system: KM12
UO-31 = system: UO-31
SF-295 = system: SF-295
HCC 2998 = system: HCC 2998

Measured: GI50

CC(C)(C)/C(=N\Nc1nc2ccccc2[nH]1)c1ccccn1
inactive: MDA-MB-435 > 100 µM | SN12C > 100 µM | A549 > 100 µM | ACHN 81.3 µM | SW-620 65.2 µM | PC-3 81.5 µM | UACC-257 > 100 µM | TK-10 24.7 µM | SK-MEL-28 > 100 µM | MCF7 24.9 µM | MDA-MB-231 > 100 µM | K562 99.8 µM | SK-OV-3 > 100 µM | SR > 100 µM | NCI-H522 33.9 µM | M14 61 µM | KM12 86.5 µM | UO-31 42.9 µM

CSc1ccc2c(c1)N(CCCN(C)C)c1ccccc1S2
inactive: MDA-MB-435 4.67 µM | SN12C 13.1 µM | A549 15.4 µM | ACHN 11.7 µM | SW-620 15.2 µM | PC-3 11.1 µM | UACC-257 7.16 µM | TK-10 14.9 µM | SK-MEL-28 2.29 µM | MCF7 11.9 µM | MDA-MB-231 12.7 µM | K562 4.28 µM | SK-OV-3 15.1 µM | SF-295 12.8 µM | SR 6.19 µM | NCI-H522 12.8 µM | M14 5.19 µM | KM12 11.8 µM

Nc1ncnc2c1ncn2C1C=CC(COS(N)(=O)=O)C1 (centres undefined)
inactive: HCC 2998 35.7 µM | MDA-MB-435 35.2 µM | SN12C 8.2 µM | A549 36.2 µM | ACHN 23.9 µM | SW-620 12.9 µM | PC-3 12 µM | UACC-257 63.5 µM | TK-10 > 100 µM | SK-MEL-28 20.5 µM | MCF7 6.43 µM | MDA-MB-231 20.2 µM | K562 16.2 µM | SK-OV-3 52.7 µM | SF-295 40.9 µM | SR 8.55 µM | M14 22.2 µM | KM12 19.2 µM | UO-31 79.1 µM

Clc1cc(Cl)c2cc3cccc[n+]3cc2c1Cl
inactive: HCC 2998 17.1 µM | MDA-MB-435 16.3 µM | SN12C 17.9 µM | A549 17.2 µM | ACHN 16.3 µM | SW-620 17.6 µM | PC-3 14 µM | UACC-257 15.2 µM | TK-10 18.7 µM | SK-MEL-28 15.5 µM | MCF7 14.2 µM | MDA-MB-231 17.9 µM | K562 19 µM | SK-OV-3 16.6 µM | SF-295 18 µM | SR 12.2 µM | M14 17.5 µM | KM12 > 10 µM | UO-31 15.1 µM
